The text below walks through data of US20210127673A1, “HERBICIDES” (SYNGENTA PARTICIPATIONS AG, priority 2016, published 2021).

Holding throughout (assay type): in vivo
The subject of test [1] is Zea Mays (ZEAMX). The test can be described thus: Post-emergence herbicidal activity, Zea Mays. Also noted: key: 5=total damage to plant; 0=no damage to plant. Conditions: 1000 g/ha, evaluated after 13 days, Test 2b. The protocol:
(§1) Seeds of a variety of test species were sown in standard soil in pots: Triticum aestivium (TRZAW), Avena fatua (AVEFA), Alopecurus myosuroides (ALOMY), Echinochloa crus-galli (ECHCG), Lolium perenne (LOLPE), Zea Mays (ZEAMX), Abutilon theophrasti (ABUTH), Amaranthus retroflexus (AMARE) and Setaria faberi (SETFA). After 8 days cultivation (post-emergence) under controlled conditions in a glasshouse (at 24/16° C., day/night; 14 hours light; 65% humidity), the plants were sprayed with an aqueous spray solution derived from the formulation of the technical active ingredient in acetone/water (50:50) solution containing 0.5% Tween 20 (polyoxyethelyene sorbitan monolaurate, CAS RN 9005-64-5). The test plants were then grown in a glasshouse under controlled conditions (at 24/16° C., day/night; 14 hours light; 65% humidity) and watered twice daily. After 13 days, the test was evaluated (5=total damage to plant; 0=no damage to plant).

Test [2] relates to Amaranthus retroflexus (AMARE). The test can be described thus: Pre-emergence herbicidal activity, Amaranthus retroflexus. The arrangement: key: 5=total damage to plant; 0=no damage to plant. The settings on record: 1000 g/ha, evaluated after 13 days, Test 1b. How it is done: (§2) Seeds of a variety of test species were sown in standard soil in pots: Triticum aestivium (TRZAW), Avena fatua (AVEFA), Alopecurus myosuroides (ALOMY), Echinochloa crus-galli (ECHCG), Lolium perenne (LOLPE), Zea Mays (ZEAMX), Abutilon theophrasti (ABUTH), Amaranthus retroflexus (AMARE) and Setaria faberi (SETFA). After cultivation for one day (pre-emergence) under controlled conditions in a glasshouse (at 24/16° C., day/night; 14 hours light; 65% humidity), the plants were sprayed with an aqueous spray solution derived from the formulation of the technical active ingredient in acetone/water (50:50) solution containing 0.5% Tween 20 (polyoxyethelyene sorbitan monolaurate, CAS RN 9005-64-5). The test plants were then grown in a glasshouse under controlled conditions (at 24/16°, day/night; 14 hours light; 65% humidity) and watered twice daily. After 13 days, the test was evaluated (5=total damage to plant; 0=no damage to plant).

The subject of test [3] is Setaria faberi (SETFA). Nature of the test: Pre-emergence herbicidal activity, Setaria faberi. Conditions: 1000 g/ha, evaluated after 13 days, Test 1b. The arrangement: key: 5=total damage to plant; 0=no damage to plant. The essentials: (§3)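 Pre-emergence spray, 1 d after sowing; formulation acetone/water 50:50 + 0.5% Tween 20. Glasshouse 24/16 °C, 14 h light, 65% RH, watered twice daily. Damage scored day 13, 0 (none) to 5 (total).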

Test [4] relates to Lolium perenne (LOLPE). Nature of the test: Pre-emergence herbicidal activity, Lolium perenne. Conditions: 1000 g/ha, evaluated after 13 days, Test 1b. The essentials:
as §3

Test [5] has as its system Lolium perenne (LOLPE). The test can be described thus: Post-emergence herbicidal activity, Lolium perenne. Conditions: 1000 g/ha, evaluated after 13 days, Test 2b. The essentials:
(§4)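 Scoring runs 0 (no damage) to 5 (total damage), assessed 13 days after treatment. Seedlings 8 days post-sowing received an aqueous spray from acetone/water 50:50 with 0.5% Tween 20, then were kept at 24/16 °C, 14 h light, 65% humidity and watered twice daily.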

Test [6] concerns Abutilon theophrasti (ABUTH). The test can be described thus: Post-emergence herbicidal activity, Abutilon theophrasti. Also noted: key: 5=total damage to plant; 0=no damage to plant. The settings on record: 1000 g/ha, evaluated after 13 days, Test 2b. How it is done: as §1
The subject of test [7] is Echinochloa crus-galli (ECHCG). Nature of the test: Post-emergence herbicidal activity, Echinochloa crus-galli. Also noted: key: 5=total damage to plant; 0=no damage to plant. Conditions: 1000 g/ha, evaluated after 13 days, Test 2b. The essentials:
as §4

Test [8] concerns Abutilon theophrasti (ABUTH). The test can be described thus: Pre-emergence herbicidal activity, Abutilon theophrasti. Also noted: key: 5=total damage to plant; 0=no damage to plant. Conditions: 1000 g/ha, evaluated after 13 days, Test 1b. The protocol:
as §2

Test [9] deals with Amaranthus retroflexus (AMARE). Nature of the test: Post-emergence herbicidal activity, Amaranthus retroflexus. The arrangement: key: 5=total damage to plant; 0=no damage to plant. Conditions: 1000 g/ha, evaluated after 13 days, Test 2b. How it is done: as §1
For test [10], the system named is Zea Mays (ZEAMX). Nature of the test: Pre-emergence herbicidal activity, Zea Mays. Also noted: key: 5=total damage to plant; 0=no damage to plant. Conditions: 1000 g/ha, evaluated after 13 days, Test 1b. How it is done: as §2
Test [11] deals with Echinochloa crus-galli (ECHCG). Nature of the test: Pre-emergence herbicidal activity, Echinochloa crus-galli. The settings on record: 1000 g/ha, evaluated after 13 days, Test 1b. Put shortly:
as §3

Test [12] relates to Setaria faberi (SETFA). The test can be described thus: Post-emergence herbicidal activity, Setaria faberi. Also noted: key: 5=total damage to plant; 0=no damage to plant. Conditions: 1000 g/ha, evaluated after 13 days, Test 2b. Put shortly: as §4

For the compound `CC(C)(C)OC(=O)Nc1ccc(-c2cncc(F)c2)nc1C(F)(F)F` [Compound B30, tert-butyl N-[6-(5-fluoro-3-pyridyl)-2-(trifluoromethyl)-3-pyridyl]carbamate], the “ZEAMX damage score (0-5)” value in the test on Zea Mays (ZEAMX) [1] and in the test on Zea Mays (ZEAMX) [10] was 5 in each case. Besides, the figures for the “AMARE damage score (0-5)” value in test [2] and in test [9] were 2 and 0, respectively. The “SETFA damage score (0-5)” value with Setaria faberi (SETFA) [3] is 4; in the test on Setaria faberi (SETFA) [12] it was 5. Moreover, the results for the “LOLPE damage score (0-5)” value with Lolium perenne (LOLPE) [4] and in the test with Lolium perenne (LOLPE) [5] were 1 and 4, respectively. Besides, the “ABUTH damage score (0-5)” value in test [6] and in test [8] was 0 each time. Besides, the “ECHCG damage score (0-5)” value came out at 5 in [7] and 3 in test [11].

Regarding `CN(C(=O)OC(C)(C)C)c1ccc(-c2cncnc2)nc1C(F)(F)F` [Compound B31], the “ZEAMX damage score (0-5)” value with Zea Mays (ZEAMX) [1] was 5; with Zea Mays (ZEAMX) [10], 4. Moreover, the “AMARE damage score (0-5)” value in test [2] and in [9] was 1 in each case. Also, the “SETFA damage score (0-5)” value in the test with Setaria faberi (SETFA) [3] and with Setaria faberi (SETFA) [12] was 5 each time. For the same compound, the “LOLPE damage score (0-5)” value in the test on Lolium perenne (LOLPE) [4] amounted to 1; in the test with Lolium perenne (LOLPE) [5], 2. In addition, the figures for the “ABUTH damage score (0-5)” value in test [6] and in test [8] were 1 and 0, respectively. In addition, the “ECHCG damage score (0-5)” value stood at 4 in [7] and 3 in test [11].

For `CC(C)(C)OC(=O)Nc1ccc(-c2cncnc2)nc1C(F)(F)F` [Compound B32, tert-butyl N-[6-pyrimidin-5-yl-2-(trifluoromethyl)-3-pyridyl]carbamate], the “ZEAMX damage score (0-5)” value in the test with Zea Mays (ZEAMX) [1] and in the test on Zea Mays (ZEAMX) [10] was 5 throughout. The “AMARE damage score (0-5)” value in test [2] and in [9] was 0 each time. The “SETFA damage score (0-5)” value with Setaria faberi (SETFA) [3] and with Setaria faberi (SETFA) [12] was 5 each time. Further, the “LOLPE damage score (0-5)” value in the test on Lolium perenne (LOLPE) [4] was 1; in the test with Lolium perenne (LOLPE) [5], 2. Also, the “ABUTH damage score (0-5)” value in [6] and in test [8] was 0 throughout. The “ECHCG damage score (0-5)” value turned out to be 4 in test [7] and 3 in [11].
